Entries after “also recorded” stand apart in the source; their conditions may differ.
Key:
microorganisms [1] = test: Peptide activities: binding, antimicrobial, growth or phenotype altering (Table 8)
Excerpt: In certain embodiments, peptides described herein can have multiple activities. Thus for example, a peptide can have both binding/targeting activity and antimicrobial activity. Such peptides can be used, e.g., in a chimeric construct, for any or all of these properties. Thus, for example, a peptide designated “B” in Table 8 can be used as a targeting peptide. If it is also designated G or M it can also be used for antimicrobial activity.

bacteria = test: Binding of targeting peptides to microorganisms (Table 3); details: preferably 1x PBS; for Target(s) (microorganisms bound by the targeting peptide) / Target(s) (microorganism bound by the targeting peptide): peptide binding in aqueous buffers that varied depending on peptide solubility
microorganisms [2] = test: Morphology, biofilm and growth disruption by peptides (Table 5); format: cell-based; parameters: key: A: Peptide aggregates; B: Less hyphal formation; Clumps; Diffuse clumps and small polyps; F: Diffuse growth; H: Thin; I: Growth inhibition; Microcolony formation; Rippled; Small polyps; Thick; W: Halo formation on top, microlonies on bottom
Excerpt: In certain embodiments peptides that induce alterations in phenotype or other biological activities can also be used as antimicrobial effector moieties.

[3] = microorganism bound by the targeting peptide, binding in aqueous buffers chosen by peptide solubility
[4] = microorganism the targeting peptide binds, binding in aqueous buffers that varied with peptide solubility

## PF-466 (VRKSDQ; Peptide with targeting and/or antimicrobial activity)
Microorganisms [1]
  Activities: G B
bacteria
  Target(s) (microorganisms bound by the targeting peptide): MRSA and C. jeikeium and C. jejuni
Microorganisms [2]; S. pneumoniae
  Organism, effect (morphology, biofilm and growth disruption): S. pneumoniae (H)

## PF-C061 (TLNYKKMFFSVIFLLGLNYLICNSPLFFKQIEF; Peptide with targeting and/or antimicrobial activity)
Microorganisms [1]
  Activities: G B
bacteria
  Target(s) (microorganism bound by the targeting peptide): A. naeslundii; also recorded: F. nucleatum; also recorded: P. gingivalis; also recorded: S. mutans; also recorded: T. denticola
Microorganisms [2]; F. nucleatum
  Organism, effect (morphology, biofilm and growth disruption): F. nucleatum (T)
Microorganisms [2]; S. mutans
  Organism, effect (morphology, biofilm and growth disruption): S. mutans (F)

## PF-563 (RPELDNELDVVQNSASLDKLQASYN; Peptide with targeting and/or antimicrobial activity)
Microorganisms [1]
  Activities: G B
bacteria
  Target(s) (microorganisms bound by the targeting peptide): S. epidermidis; also recorded: M. luteus; also recorded: C. jeikeium
Microorganisms [2]; B. subtilis
  Organism, effect (morphology, biofilm and growth disruption): B. subtilis (D)
Microorganisms [2]; C. jejuni
  Organism, effect (morphology, biofilm and growth disruption): C. jejuni (H)
Microorganisms [2]; S. pneumoniae
  Organism, effect (morphology, biofilm and growth disruption): S. pneumoniae (H)

## PF-621 (chain 1 PPSSFLV; chain 2 PPSSFLV; Peptide with targeting and/or antimicrobial activity)
Microorganisms [1]
  Activities: G B
bacteria
  Target(s) (microorganism bound by the targeting peptide): S. epidermidis; also recorded: C. albicans
Microorganisms [2]; E. faecalis
  Organism, effect (morphology, biofilm and growth disruption): E. faecalis (H)
Microorganisms [2]; S. pneumoniae
  Organism, effect (morphology, biofilm and growth disruption): S. pneumoniae (I)

## PF-373 (HFYLLFER; Peptide with targeting and/or antimicrobial activity)
Microorganisms [1]
  Activities: G B
bacteria; [3]
  Target(s): S. epidermidis and E. coli and P. aeruginosa and C. albicans and MRSA and E. faecalis and C. jejuni
Microorganisms [2]; MRSA
  Organism, effect: MRSA (M)
Microorganisms [2]; S. epidermidis
  Organism, effect: S. epidermidis (M)

## PF-363 (SMLSVTVMCLMHASVAANQAMEKKV; Peptide with targeting and/or antimicrobial activity)
Microorganisms [1]
  Activities: G B
bacteria; [3]
  Target(s): B. subtilis; also recorded: E. coli; also recorded: P. aeruginosa; also recorded: C. albicans; also recorded: S. pneumoniae; also recorded: E. faecalis
Microorganisms [2]; C. jejuni
  Organism, effect: C. jejuni (D)
Microorganisms [2]; E. coli
  Organism, effect: E. coli (C)
Microorganisms [2]; E. faecalis
  Organism, effect: E. faecalis (D)
Microorganisms [2]; MRSA
  Organism, effect: MRSA (H)
Microorganisms [2]; S. epidermidis
  Organism, effect: S. epidermidis (S)
Microorganisms [2]; S. pneumoniae
  Organism, effect: S. pneumoniae (R)

## PF-024 (DLRKAK; Peptide with targeting and/or antimicrobial activity)
Microorganisms [1]
  Activities: G B
bacteria; [4]
  Target(s): M. luteus and C. albicans and MRSA and E. faecalis and C. jeikeium
Microorganisms [2]; MRSA
  Organism, effect: MRSA (M)
Microorganisms [2]; S. epidermidis
  Organism, effect: S. epidermidis (D)

## PF-589 (APLRIDEIRNSNVIDEVLDCAPKKQEHFFVVPKIIE; Peptide with targeting and/or antimicrobial activity)
Microorganisms [1]
  Activities: G B
bacteria
  Target(s) (microorganisms bound by the targeting peptide): S. epidermidis and C. albicans and MRSA and S. pneumoniae
Microorganisms [2]; MRSA
  Organism, effect (morphology, biofilm and growth disruption): MRSA (M)
Microorganisms [2]; S. pneumoniae
  Organism, effect (morphology, biofilm and growth disruption): S. pneumoniae (C)

## PF-289 (MGRHLWNPSYFVATVSENTEEQIRKYRKNK; Peptide with targeting and/or antimicrobial activity)
Microorganisms [1]
  Activities: G B
bacteria; [3]
  Target(s): C. difficile
Microorganisms [2]; B. subtilis
  Organism, effect: B. subtilis (C)

## PF-383 (WSEIEINTKQSN; Peptide with targeting and/or antimicrobial activity)
Microorganisms [1]
  Activities: G B
bacteria; [3]
  Target(s): S. epidermidis; also recorded: B. subtilis; also recorded: B. fragilis; also recorded: E. coli; also recorded: C. jejuni
Microorganisms [2]; E. coli
  Organism, effect: E. coli (R)
Microorganisms [2]; S. epidermidis
  Organism, effect: S. epidermidis (C)

## PF-741 (chain 1 AKREDTVAAQIGANILNLIQ; chain 2 AKREDTVAAQIGANILNLIQ; Peptide with targeting and/or antimicrobial activity)
Microorganisms [1]
  Activities: G B
bacteria
  Target(s) (microorganism bound by the targeting peptide): S. epidermidis and M. luteus and P. mirabilis and P. aeruginosa and C. albicans and MRSA and S. pneumoniae and E. faecalis
Microorganisms [2]; E. coli
  Organism, effect (morphology, biofilm and growth disruption): E. coli (C)
Microorganisms [2]; M. luteus
  Organism, effect (morphology, biofilm and growth disruption): M. luteus (C)
Microorganisms [2]; MRSA
  Organism, effect (morphology, biofilm and growth disruption): MRSA (C)
Microorganisms [2]; P. mirabilis
  Organism, effect (morphology, biofilm and growth disruption): P. mirabilis (C)
Microorganisms [2]; S. epidermidis
  Organism, effect (morphology, biofilm and growth disruption): S. epidermidis (C)
Microorganisms [2]; S. mutans
  Organism, effect (morphology, biofilm and growth disruption): S. mutans (D)
Microorganisms [2]; S. pneumoniae
  Organism, effect (morphology, biofilm and growth disruption): S. pneumoniae (D)

## PF-017 (ESIIE; Peptide with targeting and/or antimicrobial activity)
Microorganisms [1]
  Activities: G B
bacteria; [4]
  Target(s): E. coli
Microorganisms [2]; MRSA
  Organism, effect: MRSA (M)

## PF-369 (MSEAVNLLRGARYSQRYAKNQVPYEVIIEK; Peptide with targeting and/or antimicrobial activity)
Microorganisms [1]
  Activities: G B
bacteria; [3]
  Target(s): B. subtilis; also recorded: B. fragilis; also recorded: E. coli; also recorded: P. aeruginosa; also recorded: C. albicans; also recorded: S. pneumoniae; also recorded: C. jeikeium; also recorded: C. jejuni
Microorganisms [2]; E. coli
  Organism, effect: E. coli (R)
Microorganisms [2]; E. faecalis
  Organism, effect: E. faecalis (C)
Microorganisms [2]; MRSA
  Organism, effect: MRSA (H)
Microorganisms [2]; S. epidermidis
  Organism, effect: S. epidermidis (S)

## PF-627 (chain 1 INDLLSYFTLHEK; chain 2 INDLLSYFTLHEK; Peptide with targeting and/or antimicrobial activity)
Microorganisms [1]
  Activities: G B
bacteria
  Target(s) (microorganism bound by the targeting peptide): S. epidermidis and P. aeruginosa and MRSA and S. pneumoniae and E. faecalis and C. jeikeium
Microorganisms [2]; C. albicans
  Organism, effect (morphology, biofilm and growth disruption): C. albicans (B)
Microorganisms [2]; E. faecalis
  Organism, effect (morphology, biofilm and growth disruption): E. faecalis (H)
Microorganisms [2]; MRSA
  Organism, effect (morphology, biofilm and growth disruption): MRSA (R)
Microorganisms [2]; S. epidermidis
  Organism, effect (morphology, biofilm and growth disruption): S. epidermidis (H)
Microorganisms [2]; S. pneumoniae
  Organism, effect (morphology, biofilm and growth disruption): S. pneumoniae (I)

## PF-389 (GLQFKEIAEEFHITTTALQQWHKDNGYPIYNKNNRK; Peptide with targeting and/or antimicrobial activity)
Microorganisms [1]
  Activities: G B
bacteria
  Target(s) (microorganisms bound by the targeting peptide): S. epidermidis and C. albicans and MRSA and S. pneumoniae and E. faecalis and C. jeikeium
Microorganisms [2]; C. jejuni
  Organism, effect: C. jejuni (R)
Microorganisms [2]; E. faecalis
  Organism, effect: E. faecalis (R)
Microorganisms [2]; MRSA
  Organism, effect: MRSA (C)
Microorganisms [2]; S. epidermidis
  Organism, effect: S. epidermidis (R)
Microorganisms [2]; S. pneumoniae
  Organism, effect: S. pneumoniae (D)

## PF-614 (GLDIYA; Peptide with targeting and/or antimicrobial activity)
Microorganisms [1]
  Activities: G B
bacteria
  Target(s) (microorganism bound by the targeting peptide): S. epidermidis; also recorded: E. coli; also recorded: C. jeikeium
Microorganisms [2]; C. jejuni
  Organism, effect (morphology, biofilm and growth disruption): C. jejuni (R)
Microorganisms [2]; E. faecalis
  Organism, effect (morphology, biofilm and growth disruption): E. faecalis (A)
Microorganisms [2]; S. epidermidis
  Organism, effect (morphology, biofilm and growth disruption): S. epidermidis (M)
Microorganisms [2]; S. pneumoniae
  Organism, effect (morphology, biofilm and growth disruption): S. pneumoniae (R)

## PF-015 (SIDKRNLYNLKYYE; Peptide with targeting and/or antimicrobial activity)
Microorganisms [1]
  Activities: G B
bacteria; [4]
  Target(s): E. faecalis; also recorded: C. jeikeium
Microorganisms [2]; MRSA
  Organism, effect: MRSA (W)

## PF-462 (KNKTDTL; Peptide with targeting and/or antimicrobial activity)
Microorganisms [1]
  Activities: G B
bacteria
  Target(s) (microorganisms bound by the targeting peptide): E. faecalis; also recorded: C. jeikeium
Microorganisms [2]; S. pneumoniae
  Organism, effect (morphology, biofilm and growth disruption): S. pneumoniae (H)

From patent US9597407B2, “Targeted antimicrobial moieties” (C3 Jian, Inc., priority 2009, dated 2017)
